US7367933B2, “Screening of chemical compounds purified from biological sources” (Sequoia Sciences, Inc., priority 1999, dated 2008)

What was measured:
[1] = system: MCF7 breast cancer, NCI-H460 lung cancer, and SF-268 CNS cancer; assay: NCI in vitro 3-cell-line anticancer panel (overall statement); format: cell-based; conditions: NCI 3-cell-line panel
Method: (§1) In vitro cytotoxicity tests were conducted at the NCI using an in vitro 3-cell-line panel consisting of MCF7 breast cancer, NCI-H460 lung cancer, and SF-268 CNS cancer. Each cell line was inoculated and incubated in microtiter plates. After 24 hours test samples were added to a final assay concentration of 2 μg/mL and the culture was incubated for 48 hours. Results for each test sample were reported as the percentage of growth of the treated cells when compared to untreated controls. Compounds which reduced the growth of any one of the cell lines […] against standard were considered to be active.

B16 melanoma = conditions: previously reported for compounds from stem bark of Taxus baccata; cited from earlier work
MCF7 breast cancer = assay: NCI in vitro cytotoxicity test, 3-cell-line panel: MCF7; format: cell-based; conditions: 2 μg/mL, 48 hours incubation; less than 32% = active
Method: as §1

SF-268 CNS cancer = assay: NCI in vitro cytotoxicity test, 3-cell-line panel: SF-268; format: cell-based; conditions: 2 μg/mL, 48 hours incubation; less than 32% = active
Method: as §1

NCI-H460 lung cancer = assay: NCI in vitro cytotoxicity test, 3-cell-line panel: NCI-H460; format: cell-based; conditions: 2 μg/mL, 48 hours incubation; less than 32% = active
Method: as §1

Row | SMILES | anticancer activity in the 3-cell-line anticancer panel (in words) [1] | activity against B16 melanoma (in words) (B16 melanoma) | MCF-7 Breast cancer, percentage of growth (One Dose Primary Anticancer Assay) (MCF7 breast cancer) | SF-268 CNS cancer, percentage of growth (One Dose Primary Anticancer Assay) (SF-268 CNS cancer) | H-460 Lung cancer, percentage of growth (One Dose Primary Anticancer Assay) (NCI-H460 lung cancer)
1 | CCCCCC(=O)N[C@@H](c1ccccc1)[C@@H](O)C(=O)O[C@H]1C[C@@]2(O)[C@@H](OC(=O)c3ccccc3)[C@@H]3[C@]4(OC(C)=O)CO[C@@H]4C[C@H](O[C@@H]4OC[C@@H](O)[C@H](O)[C@H]4O)[C@@]3(C)C(=O)[C@H](O)C(=C1C)C2(C)C [7-(β-xylosyl)-10-deacetyltaxol C] | active | potent activity | – | – | –
2 | CCCCCC(=O)N[C@@H](c1ccccc1)[C@@H](O)C(=O)O[C@H]1C[C@@]2(O)[C@@H](OC(=O)c3ccccc3)[C@@H]3[C@]4(OC(C)=O)CO[C@@H]4C[C@H](O[C@@H]4OC[C@@H](O)[C@H](O)[C@H]4O)[C@@]3(C)C(=O)[C@H](OC(C)=O)C(=C1C)C2(C)C [7-(β-xylosyl)-taxol C] | active | potent activity | – | – | –
3 | CC(=O)O[C@H]1C(=O)[C@]2(C)[C@@H](O[C@@H]3OC[C@@H](O)[C@H](O)[C@H]3O)C[C@H]3OC[C@@]3(OC(C)=O)[C@H]2[C@H](OC(=O)c2ccccc2)[C@]2(O)C[C@H](OC(=O)[C@H](O)[C@@H](NC(=O)c3ccccc3)c3ccccc3)C(C)=C1C2(C)C [7-(β-xylosyl)-taxol] | active | potent activity | – | – | –
4 | C/C=C(\C)C(=O)N[C@@H](c1ccccc1)[C@@H](O)C(=O)O[C@H]1C[C@@]2(O)[C@@H](OC(=O)c3ccccc3)[C@@H]3[C@]4(OC(C)=O)CO[C@@H]4C[C@H](O)[C@@]3(C)C(=O)[C@H](OC(C)=O)C(=C1C)C2(C)C [Cephalomanine] | – | – | 15% | 30% | 19%
5 | CC(=O)O[C@H]1C(=O)[C@@]2(C)[C@H]([C@H](OC(=O)c3ccccc3)[C@]3(O)C[C@H](OC(=O)[C@H](O)[C@@H](NC(=O)c4ccccc4)c4ccccc4)C(C)=C1C3(C)C)[C@]1(OC(C)=O)CO[C@@H]1C[C@@H]2O [Paclitaxel] | – | – | 23% | 30% | 13%
6 | CC(=O)O[C@H]1C(=O)[C@@]2(C)[C@H]([C@H](OC(=O)c3ccccc3)[C@]3(O)C[C@H](OC(=O)[C@H](O)[C@@H](NC(=O)c4ccccc4)c4ccccc4)C(C)=C1C3(C)C)[C@]1(OC(C)=O)CO[C@@H]1C[C@@H]2O [TX003-17, paclitaxel] | exhibited activity in all three cell lines | – | 21% | 29% | 30%
